Values joined by “and” are separate entries in the source; they are usually repeats but may differ in a detail not shown here. Identical values can stand only once. Like-named read-outs stand apart in the source and are kept apart here.
Legend:
[1] = tested on: BMDCs; assay: LDH release (lytic cell death, pyroptosis) from LPS-primed BMDCs; assay type: cell-based, mouse; conditions: for Average (% positive control): LDH release; for cytotoxicity at 20 µM / cytotoxicity at 40 µM / cytotoxicity at 80 µM / cytotoxicity at 25 µM / cytotoxicity at 50 µM / cytotoxicity at 75 µM: Mus musculus, BMDC
In short: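 LDH released into medium, detected colorimetrically, served as the pyroptosis read-out in triplicate. LPS-primed (50 ng ml^−1, 3 h) murine bone marrow-derived dendritic cells received test compounds, typically 50 μM, or nigericin (5 μM), R837 or CL097 (100 μM) for 3 hours.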

[2] = molecular target: T1, NLRP3 inflammasome (Mus musculus, UniProt Q8R4B8); assay: IL-1β release from LPS-primed BMDCs (ELISA) as readout of NLRP3 inflammasome activation; assay type: cell-based
T1 construct: endogenous in cells; host or cells: primary mouse bone marrow-derived dendritic cells (BMDCs), LPS-primed
T1 sequence (Q8R4B8 whole entry): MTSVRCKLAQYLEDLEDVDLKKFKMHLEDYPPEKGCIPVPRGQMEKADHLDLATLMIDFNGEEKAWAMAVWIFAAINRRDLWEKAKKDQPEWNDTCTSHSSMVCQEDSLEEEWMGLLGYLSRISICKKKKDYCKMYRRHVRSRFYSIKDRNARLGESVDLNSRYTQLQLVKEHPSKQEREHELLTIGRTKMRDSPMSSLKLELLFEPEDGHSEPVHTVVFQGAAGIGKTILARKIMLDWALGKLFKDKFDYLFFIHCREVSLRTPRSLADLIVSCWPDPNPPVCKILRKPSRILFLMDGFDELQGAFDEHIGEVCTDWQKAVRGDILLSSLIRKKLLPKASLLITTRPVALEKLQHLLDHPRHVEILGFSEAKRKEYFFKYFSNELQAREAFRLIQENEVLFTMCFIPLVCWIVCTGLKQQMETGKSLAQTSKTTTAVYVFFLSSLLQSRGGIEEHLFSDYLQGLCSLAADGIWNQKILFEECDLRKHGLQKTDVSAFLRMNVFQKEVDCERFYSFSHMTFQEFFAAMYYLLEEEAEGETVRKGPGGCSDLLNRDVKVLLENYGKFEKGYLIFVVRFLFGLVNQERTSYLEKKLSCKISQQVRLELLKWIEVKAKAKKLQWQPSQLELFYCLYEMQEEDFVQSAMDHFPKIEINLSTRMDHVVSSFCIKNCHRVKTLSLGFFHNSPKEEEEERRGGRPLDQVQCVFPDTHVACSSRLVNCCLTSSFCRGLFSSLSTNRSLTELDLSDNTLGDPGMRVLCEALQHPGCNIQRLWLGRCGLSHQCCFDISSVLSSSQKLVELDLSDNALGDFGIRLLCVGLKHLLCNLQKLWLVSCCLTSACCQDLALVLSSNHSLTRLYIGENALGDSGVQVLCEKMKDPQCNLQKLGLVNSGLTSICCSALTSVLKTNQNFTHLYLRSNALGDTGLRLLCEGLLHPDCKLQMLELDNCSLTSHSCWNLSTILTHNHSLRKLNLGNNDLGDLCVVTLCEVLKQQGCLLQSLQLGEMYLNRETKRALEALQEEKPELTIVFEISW
In short: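 NLRP3 inflammasome activation was read out as IL-1β released into the supernatant, measured by ELISA. Murine BMDCs were primed with LPS (50 ng ml^−1, 3 hours), then incubated with compounds for 3 hours, with each condition run in three technical replicates. Nigericin at 5 μM acted as the positive control activator, and IL-1β release was also expressed as a percentage of that control.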

[3] = compound 50 μM, positive control nigericin 5 μM
[4] = compound 50 μM, LPS-primed BMDCs, read-out: Average LDH release (% of max.)
[5] = single replicates, compound 50 μM, LPS-primed BMDCs, read-out: LDH release (% of max.)
[6] = IL-1β release, compound 50 μM, positive control nigericin 5 μM
[7] = compound 50 μM, LPS-primed BMDCs
[8] = single replicates, compound 50 μM, LPS-primed BMDCs

SMILES: O=C(Nc1ccccc1)Nc1ccc2ncccc2n1 [JB002, 1-(1,5-naphthyridin-2-yl)-3-phenylurea]
- Average (% positive control) ([1]; 20 μM, positive control EN22 20 μM): 13.887 % positive control
- Average (% positive control) ([1]; 40 μM, positive control EN22 20 μM): 17.760 % positive control
- Average (% positive control) ([1]; 80 μM, positive control EN22 20 μM): 30.084 % positive control
- cytotoxicity at 20 µM ([1]; 20 μM, individual replicate values, read-out: LDH release (% of max.)): 7.72%
- cytotoxicity at 20 µM ([1]; 20 μM, read-out: Average LDH release (% of max.)): 7.4%
- cytotoxicity at 40 µM ([1]; 40 μM, individual replicate values, read-out: LDH release (% of max.)): 9.38%
- cytotoxicity at 40 µM ([1]; 40 μM, read-out: Average LDH release (% of max.)): 9.46%
- cytotoxicity at 80 µM ([1]; 80 μM, individual replicate values, read-out: LDH release (% of max.)): 14%
- cytotoxicity at 80 µM ([1]; 80 μM, read-out: Average LDH release (% of max.)): 16%
- Average IL-1β ([2]; 20 μM): 0.045 ng/mL
- IL-1β ([2]; 20 μM, individual replicate values): 0.038 ng/mL and 0.050 ng/mL and 0.047 ng/mL
- Average IL-1β ([2]; 40 μM): 0.192 ng/mL
- IL-1β ([2]; 40 μM, individual replicate values): 0.190 ng/mL and 0.197 ng/mL and 0.1902 ng/mL
- Average IL-1β ([2]; 80 μM): 0.503 ng/mL
- IL-1β ([2]; 80 μM, individual replicate values): 0.464 ng/mL and 0.505 ng/mL and 0.540 ng/mL
- Average (% positive control) ([2]; IL-1β, 20 μM, positive control EN22): 2.292 % positive control
- Average (% positive control) ([2]; IL-1β, 40 μM, positive control EN22): 9.827 % positive control
- Average (% positive control) ([2]; IL-1β, 80 μM, positive control EN22): 25.697 % positive control

SMILES: O=[N+]([O-])c1ccc(NC(=S)Nc2cccc(Cl)c2)c(Cl)c1 [AH2, 1-(2-chloro-4-nitrophenyl)-3-(3-chlorophenyl) thiourea]
- Average (% positive control) ([1]; 25 μM, positive control EN22 10 μM): 29.680 % positive control
- Average (% positive control) ([1]; 50 μM, positive control EN22 10 μM): 28.819 % positive control
- Average (% positive control) ([1]; 75 μM, positive control EN22 10 μM): 33.532 % positive control
- cytotoxicity at 25 µM ([1]; 25 μM, AH series table, read-out: Average LDH release (% of max.)): 22.8%
- cytotoxicity at 25 µM ([1]; 25 μM, individual replicate values, AH series table, read-out: LDH release (% of max.)): 23.9%
- cytotoxicity at 50 µM ([1]; 50 μM, AH series table, read-out: Average LDH release (% of max.)): 22.1%
- cytotoxicity at 50 µM ([1]; 50 μM, individual replicate values, AH series table, read-out: LDH release (% of max.)): 22.8%
- cytotoxicity at 75 µM ([1]; 75 μM, individual replicate values, read-out: LDH release (% of max.)): 25.1%
- cytotoxicity at 75 µM ([1]; 75 μM, read-out: Average LDH release (% of max.)): 25.8%
- Average IL-1β ([2]; 25 μM, AH series table): 0.194 ng/mL and 0.251 ng/mL
- IL-1β ([2]; 25 μM, individual replicate values, AH series table): 0.197 ng/mL and 0.186 ng/mL and 0.200 ng/mL and 0.280 ng/mL and 0.232 ng/mL and 0.243 ng/mL
- Average IL-1β ([2]; 75 μM, AH series table): 0.187 ng/mL
- IL-1β ([2]; 75 μM, individual replicate values, AH series table): 0.176 ng/ml and 0.193 ng/ml (2×)
- Average (% positive control) ([2]; IL-1β, 25 μM, positive control EN22 10 μM): 1.942 % positive control and 2.514 % positive control
- Average (% positive control) ([2]; IL-1β, 75 μM, positive control EN22 10 μM): 1.872 % positive control

SMILES: O=C1CN(c2ccccc2)C(=O)N1Cc1nc(-c2ccc(Cl)cc2)no1 [L01.049, 3-{[3-(4-chlorophenyl)-1,2,4-oxadiazol-5-yl]-methyl}-1-phenylimid-azolidine-2,4-dione]
- Average (% positive control) [1, 3]: 16.093 % positive control
- cytotoxicity at 50 µM [1, 4]: 11.8%
- cytotoxicity at 50 µM [1, 5]: 12.6%
- Average (% positive control) [2, 6]: 4.189 % positive control
- Average IL-1β [2, 7]: 0.300 ng/mL
- IL-1β [2, 8]: 0.330 ng/mL and 0.251 ng/mL and 0.319 ng/mL

SMILES: CC(C)C(NC(=O)Nc1ccc2c(c1)COC2)c1nc(-c2cccnc2)no1 (stereo not drawn) [L01.114, 3-(1,3-dihydro-2-benzo-furan-5-yl)-1-{2-meth-yl-1-[3-(pyridin-3-yl)-1,2,4-oxadiazol-5-yl]-propyl}urea]
- Average (% positive control) [1, 3]: 12.801 % positive control
- cytotoxicity at 50 µM [1, 4]: 9.37%
- cytotoxicity at 50 µM [1, 5]: 9.46%
- Average (% positive control) [2, 6]: 1.049 % positive control
- Average IL-1β [2, 7]: 0.075 ng/mL
- IL-1β [2, 8]: 0.073 ng/mL and 0.081 ng/mL and 0.072 ng/mL

SMILES: CC(C)C(=O)Nc1cccc(NC(=O)Nc2ccccc2)c1 [L01.023, 2-methyl-N-{3-[(phenyl-carbamoyl)amino]phen-yl}propanamide]
- Average (% positive control) [1, 3]: 7.611 % positive control
- cytotoxicity at 50 µM [1, 4]: 5.57%
- cytotoxicity at 50 µM [1, 5]: 5.1%
- Average (% positive control) [2, 6]: 1.021 % positive control
- Average IL-1β [2, 7]: 0.073 ng/mL
- IL-1β [2, 8]: 0.065 ng/mL and 0.075 ng/mL and 0.080 ng/mL
